Laboratory results published in patent publication US20170029355A1, “LABILE ESTERS OF AGROCHEMICALS FOR CONTROLLED RELEASE AND REDUCTION OF OFF-SITE MOVEMENT” (Monsanto Technology LLC, priority 2011, published 2017).

Assays:
[1] = In vitro photo-release and hydrolytic release of dicamba in an aqueous medium (Example 36); format: physicochemical; conditions: 0.01 mM (0.005 mM for diesters)
[2] = In vitro dicamba photo-release from photo-labile dicamba esters, acetonitrile/10% water solvent (Example 27); format: physicochemical; conditions: acetonitrile containing 10% water
Method: This Example describes in vitro testing of dicamba photo-release by homogeneous solutions of photo-labile dicamba esters. The esters were dissolved in tetrahydrofuran (THF). Ester concentration was 0.1 mM. 25 ml of the solution was transferred to 22 mm tubes fabricated from graded seal quartz tubing with a 19/22 tapered seal at the top, which was closed with a tapered glass plug and secured with a plastic ring clamp. The solution was entirely below the quartz-to-glass transition, ensuring that the entire volume was exposed to the full spectrum.
The sealed tubes were placed in a Growth Chamber where they were exposed to simulated sunlight for 14 hours per day at 35° C. Dicamba concentrations in the solution were measured during the course of the photolysis.
A sample of the initial solution was reserved in a glass vial away from the light source and analyzed at the conclusion of the study, providing a measurement of the amount of dicamba present without illumination of the photolysis solution (the “dark control”).
This Example is another photolysis of photo-labile dicamba esters, but using acetonitrile containing 10% water by weight as the solvent. The experimental protocol is otherwise the same as in Example 18.

[3] = Solubility of the esters (statements of the description); format: physicochemical; conditions: qualitative
broadleaf weeds = assay: Control of broadleaf weeds by ester concentrates (statements of the description); format: in vivo; conditions: emulsifiable and suspension concentrates; Sesbania macrocarpa, morning glory, velvetleaf, Palmer amaranth, fat hen, sicklepod
[4] = Photolysis / cleavage of the esters to dicamba (statements of the description); format: physicochemical; conditions: qualitative
Excerpt: The efficacy of the photolabile esters can be assayed in vitro, or in greenhouse or field experiments. A useful in vitro assay for post-emergent activity involves photolysis of a dilute solution of the esters using simulated sunlight. This is conveniently achieved by photolysis of a solution of the ester in an organic solvent which is miscible with water and to which some water has been added. As described in the Examples, photolysis in acetonitrile or tetrahydrofuran containing 10% water by weight is effective. Low concentrations of the ester should be used so that the entire volume is exposed to sunlight. Since the maximum extinction coefficient of the typical esters above 220 nm is in the range of 1000-10,000 M^−1 cm^−1, a concentration of 0.1 mM is effective. Photolysis in a quartz tube exposed to simulated or actual sunlight is a typical protocol.

velvetleaf = assay: Greenhouse post-emergent control of velvetleaf by emulsifiable concentrates (Example 37); format: in vivo; conditions: Abutilon theophrasti, post-emergence, 504 h, greenhouse, Example 37; for pest or weed control at 140 g/ha: read-out: % Control of velvetleaf, 140 g/ha; for pest or weed control at 280 g/ha: read-out: % Control of velvetleaf, 280 g/ha; for pest or weed control at 420 g/ha: read-out: % Control of velvetleaf, 420 g/ha; for pest or weed control at 560 g/ha: read-out: % Control of velvetleaf, 560 g/ha
Method: The efficacy of some photo-labile ester formulations from Example 28 for post-emergent control of velvetleaf was tested in the greenhouse. All formulations were tested at rates of 140, 280, 420, and 560 g dicamba equivalent per hectare rates and compared to the diglycolamine salt of dicamba (CLARITY®) at the same rates and untreated control plants. The velvetleaf plants were 10-15 cm in height at the time of spraying. Percent control was evaluated three weeks after treatment.
The methodology of Example 29 was used to evaluate the efficacy of several esters of dicamba which convert to dicamba by hydrolysis for post-emergent control of velvetleaf as emulsifiable concentrate formulations.

Euphorbia species = assay: Field testing for post-emergent activity in the Southern Hemisphere (Example 39); format: in vivo; conditions: 9 as suspension concentrate, other esters as emulsifiable concentrates; for % control, 0.25 lb/ac (0.28 kg/hectare): 0.25 lb dicamba a.e. per acre; for % control, 0.50 lb/ac (0.56 kg/hectare): 0.50 lb dicamba a.e. per acre
Method: The primary weeds were Euphorbia species. Ester 9 was tested as a suspension concentrate using the formulation of Example 33 The other esters were tested as emulsifiable concentrates having the formulations shown in the table below. Akzo Nobel SPONTO EC 334 and SPONTO EC 336 along with SURFONIC CO-54 and […] (Huntsman) were used as emulsifiers and Aromatic 200 (A 200; Exxon) was used as the solvent. […] The diglycolamine salt of dicamba (CLARITYTM) was used as a comparator.

Row | Structure (SMILES) | Conversion to Dicamba, Dark, Day 0 ([1]; amber (dark) bottle) | Conversion to Dicamba, Dark, Day 1 ([1]; amber (dark) bottle) | Conversion to Dicamba, Dark, Day 2 ([1]; amber (dark) bottle) | Conversion to Dicamba, Dark, Day 3 ([1]; amber (dark) bottle) | Conversion to Dicamba, Dark, Day 4 ([1]; amber (dark) bottle) | Conversion to Dicamba, Dark, Day 7 ([1]; amber (dark) bottle) | Conversion to Dicamba, Dark, Day 14 ([1]; amber (dark) bottle) | Conversion to Dicamba, Light, Day 0 ([1]; quartz tube) | Conversion to Dicamba, Light, Day 1 ([1]; quartz tube) | Conversion to Dicamba, Light, Day 2 ([1]; quartz tube) | Conversion to Dicamba, Light, Day 3 ([1]; quartz tube) | Conversion to Dicamba, Light, Day 4 ([1]; quartz tube) | Conversion to Dicamba, Light, Day 7 ([1]; quartz tube) | Conversion to Dicamba, Light, Day 14 ([1]; quartz tube) | solubility, in words [3] | control of a number of broadleaf weeds in field testing, in words (broadleaf weeds) | cleavage to form dicamba, in words [4] | pest or weed control at 140 g/ha (velvetleaf) | pest or weed control at 280 g/ha (velvetleaf) | pest or weed control at 420 g/ha (velvetleaf) | other results
1 | COc1c(Cl)ccc(Cl)c1C(=O)Oc1ccccn1 [Ester 14, 2-Hydroxypyridine Ester of Dicamba] | 2% | 68% | 81% | 84% | 86% | 92% | 90% | 2% | 61% | 63% | 64% | 68% | 67% | 71% | readily soluble in organic solvents | proven effective | undergoes efficient cleavage to form dicamba | 40% | 58.3% | 80.8% | Conversion to Dicamba, Dark, Day 21 ([1]; amber (dark) bottle, Day 21): 91%; Conversion to Dicamba, Dark, Day 28 ([1]; amber (dark) bottle, Day 28): 97%; Conversion to Dicamba, Light, Day 21 ([1]; quartz tube, Day 21): 71%; Conversion to Dicamba, Light, Day 28 ([1]; quartz tube, Day 28): 75%; Dark Control % dicamba ([2]; no illumination): 0%; Conversion to dicamba, 1 day ([2]; simulated sunlight, 1 day): 6%; Conversion to dicamba, 2 days ([2]; simulated sunlight, 2 days): 9%; Conversion to dicamba, 3 days ([2]; simulated sunlight, 3 days): 10%; Conversion to dicamba, 5 days ([2]; simulated sunlight, 5 days): 12%; Conversion to dicamba, 7 days ([2]; simulated sunlight, 7 days): 12%; Conversion to dicamba, 11 days ([2]; simulated sunlight, 11 days): 19%; Conversion to dicamba, 13 days ([2]; simulated sunlight, 13 days): 21%; Conversion to dicamba, 15 days ([2]; simulated sunlight, 15 days): 25%; Conversion to dicamba, 19 days ([2]; simulated sunlight, 19 days): 26%; pest or weed control at 560 g/ha (velvetleaf): 85%; % control, 0.25 lb/ac (0.28 kg/hectare) (Euphorbia species): 47%; % control, 0.50 lb/ac (0.56 kg/hectare) (Euphorbia species): 56%
2 | COc1c(Cl)ccc(Cl)c1C(=O)Oc1ccc(OC(=O)c2c(Cl)ccc(Cl)c2OC)nn1 [Ester 17, Maleic Hydrazide Diester of Dicamba] | 6% | 16% | 26% | 35% | 41% | 49% | 60% | 6% | 18% | 26% | 33% | 36% | 42% | 53% | readily soluble in organic solvents | proven effective | undergo efficient cleavage to form dicamba | 23.3% | 41.7% | 75% | pest or weed control at 560 g/ha (velvetleaf): 73.3%; % control, 0.25 lb/ac (0.28 kg/hectare) (Euphorbia species): 41%; % control, 0.50 lb/ac (0.56 kg/hectare) (Euphorbia species): 53%
